Measured values: the supplement of paper PMC4862054
Several values for one entry are separate records, joined by “and”; a condition that tells them apart may be missing. Equal entries are not always repeated.

Legend:
Conditions in all cases: incubation time: 72 h
BT-474 [1] = test: normalised viability (% of control), CellTiter-Blue; higher = more viable cells (about 100 = DMSO control)
Procedure, shortened: (§1)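 Each entry is normalised viability at a single listed concentration within a series. It comes from breast cancer cell lines incubated 72 h with compound in 384-well plates, then measured with CellTiter-Blue fluorescence at 560/590 nm. Every plate was normalised between vehicle (100) and a positive kill control (0).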

CAL-120 [2] = test: as above
Procedure, shortened: as §1

CAL-148 [3] = test: as above
Procedure, shortened: as §1

CAL-51 [4] = test: as above
Procedure, shortened: as §1

DU-4475 [5] = test: as above
Procedure, shortened: as §1

HCC1143 [6] = test: as above
Procedure, shortened: as §1

HCC1599 [7] = test: as above
Procedure, shortened: as §1

HCC1937 [8] = test: as above
Procedure, shortened: as §1

HDQ-P1 = test: as above
Procedure, shortened: as §1

Hs578T = test: as above
Procedure, shortened: as §1

MDA-MB-231 [9] = test: as above
Procedure, shortened: as §1

MDA-MB-436 = test: as above
Procedure, shortened: as §1

MFM-223 = test: as above
Procedure, shortened: as §1

SK-BR-3 = test: as above
Procedure, shortened: as §1

BT-474 [10] = test: drug sensitivity score (DSS), CellTiter-Blue viability (DSS (AUC-based score)); higher = stronger viability inhibition; extreme values may be limits of the assay
Protocol: (§2)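 DSRT with the CellTiter-Blue (resazurin reduction) viability readout, fluorescence 560/590 nm, 72 h incubation. Plates were normalised to DMSO and benzethonium chloride controls. DSS is computed from the area under the fitted dose-response curve (5 or 9 concentrations).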

CAL-120 [11] = test: as above
Protocol: as §2

CAL-148 [12] = test: as above
Protocol: as §2

CAL-51 [13] = test: as above
Protocol: as §2

DU-4475 [14] = test: as above
Protocol: as §2

HCC1143 [15] = test: as above
Protocol: as §2

HCC1599 [16] = test: as above
Protocol: as §2

HCC1937 [17] = test: as above
Protocol: as §2

MDA-MB-231 [18] = test: as above
Protocol: as §2

MDA-MB-453 = test: as above
Protocol: as §2

O=C(/C=C/c1cccc(S(=O)(=O)Nc2ccccc2)c1)NO [Belinostat]
normalised viability [%]
Conditions | 3 nM | 10 nM | 30 nM | 100 nM | 1000 nM | 10000 nM
BT-474 [1] | – | 106 | – | – | 47.5 | 2.17
CAL-51 [4] | 101 | – | 103 | 115 | – | –
CAL-120 [2] | – | 87.7 | – | – | 20.5 | 3.33
CAL-148 [3] | 90.7 | – | 97.2 | 81.7 | – | –
DU-4475 [5] | 99.9 | – | 106 | 98.7 | – | –
HCC1143 [6] | – | 99.4 | – | – | 54 | 12.9
HCC1599 [7] | – | 90 | – | – | 33.2 | 15.4
HCC1937 [8] | – | 46.4 | – | – | 41.4 | 15.1
HDQ-P1 | 90.4 | – | 90.8 | 72.5 | – | –
Hs578T | – | 114 | – | – | 74.7 | 7.02
MDA-MB-231 [9] | – | 96.1 | – | – | 40.7 | 7.79
MDA-MB-436 | – | 116 | – | – | 38.8 | 17.4
MFM-223 | – | 87.8 | – | – | 37.2 | 11.1
SK-BR-3 | – | 86.9 | – | – | 21.6 | 3.92

Conditions | drug sensitivity score
BT-474 [10] | 11.8
CAL-51 [13] | 10.6
CAL-120 [11] | 19
CAL-148 [12] | 17.1
DU-4475 [14] | 15
HCC1143 [15] | 10.3
HCC1599 [16] | 14.6
HCC1937 [17] | 12.3
MDA-MB-231 [18] | 12.5
MDA-MB-453 | 22.4

CN(C)c1nc(N(C)C)nc(N(C)C)n1 [Altretamine]
normalised viability [%]
Conditions | 3 nM | 10 nM | 30 nM | 100 nM | 1000 nM | 10000 nM
BT-474 [1] | – | 117 | – | – | 134 | 138
CAL-51 [4] | 113 | – | 108 | 105 | – | –
CAL-120 [2] | – | 88.6 | – | – | 98.5 | 105
CAL-148 [3] | 99.5 | – | 96.7 | 104 | – | –
DU-4475 [5] | 94.6 | – | 83.6 | 105 | – | –
HCC1143 [6] | – | 74.7 | – | – | 88.4 | 91.2
HCC1599 [7] | – | 95.7 | – | – | 98.2 | 73.5
HCC1937 [8] | – | 100 | – | – | 96.3 | 88.6
HDQ-P1 | 107 | – | 92.7 | 112 | – | –
Hs578T | – | 107 | – | – | 96.9 | 102
MDA-MB-231 [9] | – | 99.7 | – | – | 90.9 | 106
MDA-MB-436 | – | 102 | – | – | 99.5 | 85.5
MFM-223 | – | 96.2 | – | – | 98 | 89.6
SK-BR-3 | – | 106 | – | – | 113 | 100

Conditions | drug sensitivity score
BT-474 [10] | 0
CAL-51 [13] | 0
CAL-120 [11] | 0
CAL-148 [12] | 0
DU-4475 [14] | 0
HCC1143 [15] | 0
HCC1599 [16] | 1.24
HCC1937 [17] | 0
MDA-MB-231 [18] | 0
MDA-MB-453 | 2.05

CCc1c2c(nc3ccc(OC(=O)N4CCC(N5CCCCC5)CC4)cc13)-c1cc3c(c(=O)n1C2)COC(=O)[C@]3(O)CC [Irinotecan]
Conditions | normalised viability
BT-474 [1], 10 nM | 102% and 114%
BT-474 [1], 1000 nM | 106% and 109%
BT-474 [1], 10000 nM | 97.2% and 105%
CAL-51 [4], 3 nM | 106% and 120%
CAL-51 [4], 30 nM | 99% and 110%
CAL-51 [4], 100 nM | 98.4% and 106%
CAL-120 [2], 10 nM | 83.3% and 96.8%
CAL-120 [2], 1000 nM | 68.2% and 89.1%
CAL-120 [2], 10000 nM | 47.4% and 55.8%
CAL-148 [3], 3 nM | 77.4% and 98.8%
CAL-148 [3], 30 nM | 90.3% and 101%
CAL-148 [3], 100 nM | 80.5% and 99.7%
DU-4475 [5], 3 nM | 111% and 115%
DU-4475 [5], 30 nM | 87.3% and 103%
DU-4475 [5], 100 nM | 101% and 93.7%
HCC1143 [6], 10 nM | 74.2% and 87.3%
HCC1143 [6], 1000 nM | 91.4% and 95.9%
HCC1143 [6], 10000 nM | 47.7% and 62.6%
HCC1599 [7], 10 nM | 81.2% and 102%
HCC1599 [7], 1000 nM | 74.3% and 81.7%
HCC1599 [7], 10000 nM | 57.8% and 78.1%
HCC1937 [8], 10 nM | 110% and 91.4%
HCC1937 [8], 1000 nM | 54.7% and 60.4%
HCC1937 [8], 10000 nM | 27.8% and 10.4%
HDQ-P1, 3 nM | 109% and 101%
HDQ-P1, 30 nM | 99.4% and 104%
HDQ-P1, 100 nM | 99.8% and 101%
Hs578T, 10 nM | 98.6% and 100%
Hs578T, 1000 nM | 83% and 95.2%
MDA-MB-231 [9], 10 nM | 85.2% and 94.5%
MDA-MB-231 [9], 1000 nM | 84.7% and 89.4%
MDA-MB-231 [9], 10000 nM | 72.8% and 78.7%
MDA-MB-436, 10 nM | 89.1% and 93%
MDA-MB-436, 1000 nM | 79.6% and 92.3%
MFM-223, 10 nM | 88.5% and 97%
MFM-223, 1000 nM | 100% and 99.8%
SK-BR-3, 10 nM | 92.4% and 108%
SK-BR-3, 10000 nM | 36.6% and 41.3%

Conditions | drug sensitivity score
BT-474 [10] | 0
CAL-51 [13] | 6.14 and 4.1
CAL-120 [11] | 5.49 and 3.99
CAL-148 [12] | 9.3 and 7.24
DU-4475 [14] | 7.9 and 5.68
HCC1937 [17] | 9.68 and 9.91

COc1cc2ncnc(Nc3ccc(F)c(Cl)c3)c2cc1OCCCN1CCOCC1 [Gefitinib]
Conditions | normalised viability
BT-474 [1], 10 nM | 104% and 116%
BT-474 [1], 1000 nM | 58.7% and 65.5%
BT-474 [1], 10000 nM | 27.3% and 22.7%
CAL-51 [4], 3 nM | 107% and 110%
CAL-51 [4], 30 nM | 104% and 106%
CAL-51 [4], 100 nM | 108% and 102%
CAL-120 [2], 10 nM | 76.8% and 88.1%
CAL-120 [2], 1000 nM | 76% and 85.9%
CAL-120 [2], 10000 nM | 60% and 62.1%
CAL-148 [3], 3 nM | 83% and 87.9%
CAL-148 [3], 30 nM | 96.2% and 85.9%
CAL-148 [3], 100 nM | 94.4% and 90.2%
DU-4475 [5], 3 nM | 89.8% and 92.1%
DU-4475 [5], 30 nM | 85.6% and 75.6%
DU-4475 [5], 100 nM | 99.3% and 83.1%
HCC1143 [6], 10 nM | 65.4% and 86.2%
HCC1143 [6], 1000 nM | 64.3% and 84.5%
HCC1143 [6], 10000 nM | 68.2% and 68.7%
HCC1599 [7], 10 nM | 90.8% and 106%
HCC1599 [7], 1000 nM | 75.2% and 81.4%
HCC1599 [7], 10000 nM | 64.6% and 70.1%
HCC1937 [8], 1000 nM | 101% and 100%
HCC1937 [8], 10000 nM | 61.1% and 79.5%
HDQ-P1, 3 nM | 88.5% and 105%
HDQ-P1, 30 nM | 87% and 110%
HDQ-P1, 100 nM | 91% and 109%
Hs578T, 10 nM | 100% and 105%
Hs578T, 1000 nM | 91.4% and 112%
Hs578T, 10000 nM | 77.4% and 74.4%
MDA-MB-231 [9], 10 nM | 83.8% and 98.3%
MDA-MB-231 [9], 1000 nM | 94.6% and 114%
MDA-MB-231 [9], 10000 nM | 81.1% and 77%
MDA-MB-436, 10 nM | 90.6% and 82.3%
MDA-MB-436, 1000 nM | 88.3% and 81.4%
MDA-MB-436, 10000 nM | 69.9% and 62%
MFM-223, 10 nM | 89.2% and 87.1%
MFM-223, 1000 nM | 92.2% and 89%
MFM-223, 10000 nM | 71.9% and 64.2%
SK-BR-3, 10 nM | 88.1% and 97.7%
SK-BR-3, 1000 nM | 67.2%
SK-BR-3, 10000 nM | 20.8% and 20.5%

Conditions | drug sensitivity score
BT-474 [10] | 9.05 and 8.8
CAL-51 [13] | 0
CAL-148 [12] | 2.15 and 4.81
DU-4475 [14] | 0
HCC1143 [15] | 0
HCC1599 [16] | 2.82 and 3.43
HCC1937 [17] | 0
MDA-MB-453 | 3.14 and 5.26
